From the NIST ThermoML archive (doi:10.1016/j.jct.2005.02.003)
Numbers after ± are expanded uncertainties.

Experiment: molar heat capacity at constant pressure
Conditions: 101.33 kPa

CC(C)COC(C)(C)C [isobutyl tert-butyl ether]
Conditions	molar heat capacity at constant pressure [J/K/mol]
5 K, Crystal	0.38 ± 0.055
7.68 K, Crystal	1.339 ± 0.086
8.33 K, Crystal	1.743 ± 0.099
8.97 K, Crystal	2.217 ± 0.11
9.61 K, Crystal	2.779 ± 0.13
10 K, Crystal	3.042 ± 0.14
10.26 K, Crystal	3.32 ± 0.15
11.02 K, Crystal	4.139 ± 0.17
11.92 K, Crystal	5.166 ± 0.2
12.83 K, Crystal	6.289 ± 0.23
13.74 K, Crystal	7.45 ± 0.26
14.65 K, Crystal	8.714 ± 0.29
15 K, Crystal	9.221 ± 0.3
15.57 K, Crystal	10.02 ± 0.32
16.48 K, Crystal	11.42 ± 0.35
17.41 K, Crystal	12.82 ± 0.37
18.34 K, Crystal	14.27 ± 0.4
19.27 K, Crystal	15.69 ± 0.42
20 K, Crystal	16.85 ± 0.45
20.2 K, Crystal	17.2 ± 0.45
21.22 K, Crystal	18.77 ± 0.47
22.29 K, Crystal	20.45 ± 0.49
23.35 K, Crystal	22.1 ± 0.52
24.42 K, Crystal	23.8 ± 0.53
25 K, Crystal	24.7 ± 0.53
25.49 K, Crystal	25.53 ± 0.54
26.55 K, Crystal	27.09 ± 0.55
27.63 K, Crystal	28.56 ± 0.55
28.7 K, Crystal	30.12 ± 0.56
29.77 K, Crystal	31.74 ± 0.56
30 K, Crystal	32.07 ± 0.52
30.84 K, Crystal	33.37 ± 0.53
31.91 K, Crystal	34.71 ± 0.55
32.98 K, Crystal	36.13 ± 0.56
34.05 K, Crystal	37.59 ± 0.57
35 K, Crystal	38.76 ± 0.59
35.12 K, Crystal	38.89 ± 0.59
36.19 K, Crystal	40.25 ± 0.61
37.26 K, Crystal	41.63 ± 0.61
38.34 K, Crystal	42.83 ± 0.63
39.41 K, Crystal	44.07 ± 0.64
40 K, Crystal	44.8 ± 0.65
40.47 K, Crystal	45.31 ± 0.66
41.54 K, Crystal	46.53 ± 0.67
42.6 K, Crystal	47.83 ± 0.68
43.66 K, Crystal	48.91 ± 0.69
44.72 K, Crystal	50.25 ± 0.71
45 K, Crystal	50.39 ± 0.71
45.78 K, Crystal	51.18 ± 0.71
46.84 K, Crystal	52.39 ± 0.72
47.9 K, Crystal	53.45 ± 0.73
48.96 K, Crystal	54.66 ± 0.75
50 K, Crystal	55.71 ± 0.76
50.01 K, Crystal	55.57 ± 0.76
51.07 K, Crystal	56.57 ± 0.77
52.12 K, Crystal	57.81 ± 0.78
53.17 K, Crystal	59.02 ± 0.79
54.22 K, Crystal	60.27 ± 0.81
55 K, Crystal	60.91 ± 0.81
55.27 K, Crystal	61.56 ± 0.81
56.31 K, Crystal	63.16 ± 0.83
57.36 K, Crystal	64.51 ± 0.85
58.41 K, Crystal	64.56 ± 0.85
59.46 K, Crystal	65.29 ± 0.86
60 K, Crystal	66.03 ± 0.86
63.63 K, Crystal	70.22 ± 0.91
64.68 K, Crystal	70.75 ± 0.91
65 K, Crystal	71.08 ± 0.91
65.72 K, Crystal	72.16 ± 0.92
66.76 K, Crystal	73.11 ± 0.93
67.8 K, Crystal	74.04 ± 0.94
68.84 K, Crystal	74.44 ± 0.95
69.88 K, Crystal	75.46 ± 0.96
70 K, Crystal	76.09 ± 0.96
70.92 K, Crystal	76.66 ± 0.96
71.95 K, Crystal	77.53 ± 0.97
74.01 K, Crystal	79.84 ± 1
75 K, Crystal	81.05 ± 1
75.04 K, Crystal	81.32 ± 1
76.07 K, Crystal	82.23 ± 1
77.1 K, Crystal	83.09 ± 1
79.16 K, Crystal	85.64 ± 1.1
80 K, Crystal	85.97 ± 1.1
80.19 K, Crystal	86.55 ± 1.1
80.42 K, Glass	91.54 ± 1.8
80.56 K, Crystal	86.3 ± 1.1
81.22 K, Crystal	87.3 ± 1.1
81.39 K, Glass	92.71 ± 1.8
82.25 K, Crystal	88.55 ± 1.1
82.32 K, Glass	93.45 ± 1.8
83.28 K, Crystal	89.21 ± 1.1
83.29 K, Glass	95.2 ± 1.8
83.57 K, Crystal	89.05 ± 1.1
84.28 K, Glass	95.95 ± 1.8
85 K, Crystal	90.88 ± 1.1
85.22 K, Glass	97.36 ± 1.9
86.13 K, Glass	97.2 ± 1.9
86.51 K, Crystal	92.54 ± 1.2
87.04 K, Glass	98.86 ± 1.9
87.51 K, Crystal	93.29 ± 1.2
87.98 K, Glass	100.5 ± 1.9
88.51 K, Crystal	93.95 ± 1.2
88.93 K, Glass	101.4 ± 1.9
89.5 K, Crystal	95.12 ± 1.2
89.88 K, Glass	102.9 ± 2
90 K, Crystal	95.78 ± 1.2
90.5 K, Crystal	96.03 ± 1.2
90.83 K, Glass	103.8 ± 2.4
91.51 K, Crystal	97.11 ± 1.2
91.79 K, Glass	104.5 ± 2.4
92.51 K, Crystal	98.28 ± 1.2
92.74 K, Glass	105.8 ± 2.4
93.5 K, Crystal	99.11 ± 1.2
93.68 K, Glass	107.3 ± 2.5
94.49 K, Crystal	100.2 ± 1.2
94.62 K, Glass	107.9 ± 2.5
95 K, Crystal	100.6 ± 1.2
95.48 K, Crystal	101.4 ± 1.2
95.55 K, Glass	107.9 ± 2.5
96.48 K, Crystal	102.4 ± 1.2
96.51 K, Glass	109.8 ± 2.5
97.47 K, Crystal	103.3 ± 1.2
97.47 K, Glass	111.7 ± 2.5
98.41 K, Glass	112.7 ± 2.5
98.47 K, Crystal	104.1 ± 1.2
99.31 K, Glass	114.5 ± 2.5
99.46 K, Crystal	105 ± 1.2
100 K, Crystal	105.4 ± 1.2
100.2 K, Glass	113.8 ± 2.5
100.45 K, Crystal	105.8 ± 1.2
101.1 K, Glass	115.2 ± 2.5
101.44 K, Crystal	106.9 ± 1.2
101.97 K, Glass	117.3 ± 2.6
102.44 K, Crystal	108.1 ± 1.2
102.84 K, Glass	117.8 ± 2.6
103.44 K, Crystal	108.7 ± 1.2
103.72 K, Glass	119 ± 2.6
104.44 K, Crystal	109.5 ± 1.2
104.61 K, Glass	120.2 ± 2.6
105.43 K, Crystal	110.5 ± 1.2
105.51 K, Glass	121.5 ± 2.6
106.41 K, Crystal	111.5 ± 1.3
106.42 K, Glass	123.1 ± 2.6
107.34 K, Glass	124.7 ± 2.6
107.39 K, Crystal	112.7 ± 1.3
108.29 K, Glass	126.4 ± 2.6
108.37 K, Crystal	113.4 ± 1.3
109.25 K, Glass	128.9 ± 2.7
109.35 K, Crystal	114.2 ± 1.3
110 K, Crystal	114.9 ± 1.3
110.23 K, Glass	130 ± 2.7
110.32 K, Crystal	115.2 ± 1.3
111.21 K, Glass	134 ± 2.7
111.31 K, Crystal	116 ± 1.3
112.18 K, Glass	138.9 ± 2.7
112.29 K, Crystal	117 ± 1.3
113.14 K, Glass	146.1 ± 2.7
113.28 K, Crystal	117.8 ± 1.3
114.06 K, Glass	162.4 ± 2.9
114.26 K, Crystal	118.6 ± 1.3
114.91 K, Glass	193.9 ± 3.2
115.24 K, Crystal	119.6 ± 1.3
115.82 K, Liquid	198.1 ± 0.83
116.22 K, Crystal	120.5 ± 1.3
116.8 K, Liquid	199.6 ± 0.83
117.2 K, Crystal	121.3 ± 1.3
117.8 K, Liquid	200 ± 0.83
118.17 K, Crystal	122.1 ± 1.4
118.8 K, Liquid	200.4 ± 0.83
119.15 K, Crystal	123.1 ± 1.4
119.8 K, Liquid	200.7 ± 0.83
120 K, Crystal	124 ± 1.4
120.12 K, Crystal	124.2 ± 1.4
120.79 K, Liquid	201 ± 0.83
121.09 K, Crystal	124.8 ± 1.4
121.77 K, Liquid	201.5 ± 0.83
122.76 K, Liquid	202 ± 0.83
123.02 K, Crystal	126.6 ± 1.4
123.76 K, Liquid	202.1 ± 0.83
123.99 K, Crystal	127.8 ± 1.4
124.76 K, Liquid	202.3 ± 0.83
124.96 K, Crystal	128.5 ± 1.4
125.75 K, Liquid	202.9 ± 0.83
125.92 K, Crystal	129.5 ± 1.4
126.75 K, Liquid	202.9 ± 0.83
126.91 K, Crystal	130.2 ± 1.4
127.1 K, Crystal	130.5 ± 1.4
127.74 K, Liquid	203.5 ± 0.83
127.9 K, Crystal	130.9 ± 1.4
128.73 K, Liquid	204.2 ± 0.83
128.89 K, Crystal	131.3 ± 1.4
129.13 K, Crystal	131.9 ± 1.5
129.7 K, Liquid	204.7 ± 0.83
130 K, Crystal	132.7 ± 1.5
130.13 K, Crystal	132.5 ± 1.5
130.64 K, Liquid	204.9 ± 0.83
131.57 K, Liquid	205 ± 0.83
132.12 K, Crystal	134.9 ± 1.5
132.51 K, Liquid	205.5 ± 0.83
133.1 K, Crystal	135.4 ± 1.5
133.45 K, Liquid	205.9 ± 0.83
134.08 K, Crystal	135.9 ± 1.5
134.39 K, Liquid	206.2 ± 0.83
135.33 K, Liquid	206.4 ± 0.83
136.02 K, Crystal	137.6 ± 1.5
136.26 K, Liquid	206.9 ± 0.83
136.98 K, Crystal	138.6 ± 1.5
137.2 K, Liquid	207.9 ± 0.83
137.94 K, Crystal	138.9 ± 1.5
138.89 K, Crystal	140 ± 1.5
139.84 K, Crystal	140.1 ± 1.5
140 K, Crystal	140.5 ± 1.5
